≈ marks a conversion by molar mass, not a printed value. Read-outs that look alike come from different tables or passages of the source.
Columns and labels:
[1] = Solubility test in water of taxane derivatives (HPLC); conditions: for Dissolved amount (Y): purified water + 0.1N hydrochloric acid (1.05 eq.), room temperature, 2 hours, HPLC; for solubility: water; for solubility at 2 h: water + 0.1n hcl
Protocol: I) Measurement of the solubility of the compound (b)
1) Preparation of a calibration curve
(§1) The compound (b) was weighed in an amount of 1.19 mg, to which 1.19 ml of acetonitrile was added so that the compound was dissolved to provide a standard solution. Using a 10 μl portion of the standard solution, the test was conducted by HPLC (operation conditions 1). […] The peak area obtained as an average of three measurements was plotted against the amount (10.0 μg) of the compound (b) per 10 μl, whereby a calibration curve was prepared.
Calibration curve: Y=2.08×10^-5 X [X: peak area, Y: amount (μg) of the compound (b)]
[HPLC operation conditions 1]
Column: Inertsil ODS-2 (5-250), 40 deg.
Mobile phase: 0.01M KH2 PO4 --CH3 CN (3:2)
Detection: Ultraviolet absorption photometer (225 nm), 0.2 aufs.
2) Solubility test of the compound (b)
(§2) The compound (b) was weighed in an amount of 4.0 mg and then suspended in 2.0 ml of purified water. To the resulting suspension, 45 μl (1.05 eq.) of 0.1N hydrochloric acid was added. By ultrasonication, the resulting mixture was formed into a uniform suspension, which was then shaken at room temperature for 2 hours. The thus-obtained mixture was filtered through a membrane filter (0.22 μm), and the filtrate was provided as a test solution. Using the resulting test solution, the test was conducted by HPLC (operation conditions 1). From the area obtained as an average of three measurements, the solubility of the compound (b) was determined.
II) Measurement of the solubility of the compound (j)
as §1, with “(j)” for “(b)”, “0.94” for “1.19”, “The” for “The peak”
Calibration curve: Y=2.02×10^-5 X [X: peak area, Y: amount (μg) of the compound (j)]
2) Solubility test of the compound (j)
as §2, with “(j)” for “(b)”, “4.24” for “4.0”, “46” for “45”

KB cells = experiment: Cancer cell proliferation activities, growth inhibition of KB cells (XTT assay); assay type: cell-based; conditions: Homo sapiens, 72 h
Protocol: Cancer Cell Proliferation Activities
As KB cells derived from a human mouth cancer, those purchased from Dainippon Pharmaceutical Co., Ltd. and stored in a lyophilized from at the Research Institute of that company was used. In Dulbecco's modified Eargle's medium containing 10% fetal bovine serum (product of NISSUI PHARMACEUTICAL CO., LTD.), the KB cells were cultured and maintained under the conditions of 5%, CO2 -air and 37° C.
Each compound was used by dissolving it at a concentration of 10 mg/ml in DMSO.
On Day-1, cells which were in a logarithmic growth phase were inoculated at 2,000 cells/100 μl/well on 96-well microtiter plates (Falcon #3072) by using a phenol-red-free culture medium with 10% fetal bovine serum contained therein (Dulbecco's modified Eargle's medium (Sigma)), and were cultured overnight. On Day 0, the compounds each of which had been diluted to 0.03 to 10,000 ng/ml with the same culture medium were added in 100 μl aliquots to the individual wells, and the cells were cultured for 3 days. Three wells were used per each drug concentration. Each plate was provided with three blank wells containing only the culture medium and also with eight wells as a drug-untreated control.
Upon use, XTT (Sigma) was dissolved at a concentration of 1 mg/ml in each culture medium which was free of serum. Phenodin methosulfate (Sigma) dissolved at a concentration of 5 mM in PBS was added to the resulting solution at a volume ratio of 1/200. To each well, the solution so prepared was added in an amount of 50 μl per well. Subsequent to culture for 4 hours, OD was measured at 450 nm by ELISA.
Calculation of 50% Growth Inhibitory Concentration (GI50)
GI50 was calculated by interpolation from a concentration-growth inhibition rate (GIR). GIR was determined in accordance with the following formula: [formula]

[2] = system: ovarian cancer and breast cancer; conditions: Ann. int. Med. 111, 273, 1989; cited from earlier work
[3] = background statement on Taxol; cited from earlier work

SMILES: CC(=O)OC12COC1CC(O)C1(C)C(=O)C(OC(=O)N3CCN(C)CC3)C3=C(C)C(OC(=O)C(O)C(NC(=O)c4ccco4)c4ccccc4)CC(O)(C(OC(=O)c4ccccc4)C21)C3(C)C (stereo not drawn) [Compound b, 13-O-[3-(2-Furoylamino)-2-hydroxy-3-phenylpropionyl]-10-O-(4-methylpiperazinocarbonyl)-10-deacetylbaccatin III]
- Dissolved amount (Y) [1]: 9.98 μg/5 μl
- solubility [1]: 2000 µg/mL (≈ 2160 µM)
- solubility at 2 h [1]: 2000 µg/mL
- GI50 (KB cells; KB cells, 3 days, XTT, read-out: GI50): 1.4 ng/mL (≈ 0.00151 µM)

SMILES: CCN1CCN(C(=O)OC2C(=O)C3(C)C(O)CC4OCC4(OC(C)=O)C3C(OC(=O)c3ccccc3)C3(O)CC(OC(=O)C(O)C(NC(=O)OC4CCCC4)c4ccccc4)C(C)=C2C3(C)C)CC1 (stereo not drawn) [Compound j, 13-O-(3-Cyclopentyloxycarbonylamino-2-hydroxy-3-phenylpropionyl)-10-O-(4-ethylpiperazinocarbonyl)-10-deacetylbaccatin III]
- Dissolved amount (Y) [1]: 9.20 μg/5 μl
- solubility [1]: 1840 µg/mL (≈ 1920 µM)
- solubility at 2 h [1]: 1840 µg/mL
- GI50 (KB cells; KB): 0.58 ng/mL (≈ 0.000604 µM)

SMILES: CC(=O)O[C@H]1C(=O)[C@@]2(C)[C@H]([C@H](OC(=O)c3ccccc3)[C@]3(O)C[C@H](OC(=O)[C@H](O)[C@@H](NC(=O)c4ccccc4)c4ccccc4)C(C)=C1C3(C)C)[C@]1(OC(C)=O)CO[C@@H]1C[C@@H]2O [Taxol, reference compound]
- efficacy against ovarian cancer and breast cancer [2]: high efficacy against ovarian cancer and breast cancer
- solubility in water (in words) [3]: sparingly soluble in water
- solubility [1]: 0.4 µg/mL (≈ 0.468 µM)
- GI50 (KB cells; KB): 1.3 ng/mL (≈ 0.00152 µM)
